Results from US8586588B2, “Aryl pyridazinone derivatives and their use as H3 receptor ligands” (Cephalon, Inc., priority 2006, dated 2013).
Where two headings read alike, the source gives them in different places.

Key:
[1] = target: T1, rat histamine H3 receptor (Rattus norvegicus, UniProt Q9QYN8); assay: Rat H3 radioligand binding ([3H]-N-alpha-methylhistamine, CHO-A3 cell membranes, SPA); conditions: binding constant as letter class
T1 construct: encoding the entire 445-amino-acid rat histamine H3 receptor; expressed in transfected cells
T1 sequence (Q9QYN8 whole entry): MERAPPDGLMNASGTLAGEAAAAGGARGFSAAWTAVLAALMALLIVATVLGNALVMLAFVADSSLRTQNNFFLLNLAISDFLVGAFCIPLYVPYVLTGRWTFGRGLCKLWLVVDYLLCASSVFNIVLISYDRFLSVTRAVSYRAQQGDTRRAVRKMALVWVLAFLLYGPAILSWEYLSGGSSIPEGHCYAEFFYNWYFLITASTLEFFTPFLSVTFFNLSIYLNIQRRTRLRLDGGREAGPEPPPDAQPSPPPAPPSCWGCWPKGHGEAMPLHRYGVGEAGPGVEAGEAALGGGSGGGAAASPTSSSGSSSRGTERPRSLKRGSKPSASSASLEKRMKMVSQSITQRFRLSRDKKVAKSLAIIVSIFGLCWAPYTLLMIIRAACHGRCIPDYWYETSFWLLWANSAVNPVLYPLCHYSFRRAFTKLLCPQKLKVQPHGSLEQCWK
Procedure, shortened: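 Scintillation proximity displacement of about 1 nM [3H]-N-alpha-methylhistamine, test compound 0.01 nM-30 μM, 4 h, room temperature, in the dark. Receptor source: rat H3 stably transfected into CHO-A3 cells, 10 μg membrane protein, Tris-HCl pH 7.4/MgCl2/BSA buffer. Nonspecific binding defined by 10 μM clobenpropit.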

human H3 receptor = target: T2, human H3 receptor (Homo sapiens, UniProt Q9Y5N1); assay: Human H3 radioligand binding ([3H]-N-alpha-methylhistamine, CHO cell membranes, SPA)
T2 construct: expressed in transfected cells
T2 sequence (Q9Y5N1 whole entry): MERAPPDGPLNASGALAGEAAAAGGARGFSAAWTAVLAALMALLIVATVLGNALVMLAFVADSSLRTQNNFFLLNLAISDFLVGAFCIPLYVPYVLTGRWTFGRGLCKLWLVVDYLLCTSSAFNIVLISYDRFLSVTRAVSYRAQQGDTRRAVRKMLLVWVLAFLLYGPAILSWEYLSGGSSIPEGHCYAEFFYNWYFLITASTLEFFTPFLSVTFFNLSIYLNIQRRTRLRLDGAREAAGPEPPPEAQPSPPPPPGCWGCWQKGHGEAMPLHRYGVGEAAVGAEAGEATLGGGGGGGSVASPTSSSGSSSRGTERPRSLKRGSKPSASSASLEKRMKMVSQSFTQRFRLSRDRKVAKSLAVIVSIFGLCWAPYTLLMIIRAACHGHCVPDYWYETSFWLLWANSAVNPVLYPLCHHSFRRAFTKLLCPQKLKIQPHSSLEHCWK
Procedure, shortened: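 Scintillation proximity format: bead-proximal [3H]-N-alpha-methylhistamine (approximately 1 nM final) bound to human H3 receptor in CHO membranes was counted after 4 h at room temperature, light-protected. Buffer was pH 7.4 Tris/MgCl2/BSA; test compounds spanned 0.01 nM-30 μM; 10 μM clobenpropit set non-specific binding.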

[2] = Table B, binding constant as letter class

SMILES | melting point | Ki ([1]; Table B, read-out: rat H3 Ki) [nM] | Ki (human H3 receptor; [2]) [nM] | Ki (human H3 receptor; Table B, cell prints a number instead of a letter) [nM] | Ki ([1]; Table A, read-out: Rat H3 Ki) [nM] | Ki (human H3 receptor; Table A, binding constant as letter class) [nM]
Cn1nc(-c2ccc(OC3CCN(C4CCCC4)CC3)cc2)ccc1=O [Example 83, 6-[4-(1-Cyclopentyl-piperidin-4-yloxy)-phenyl]-2-methyl-2H-pyridazin-3-one] | 129 to 132 °C | 0.1 to 100 | 0.1 to 100 | – | – | –
C[C@@H]1CCCN1CCCOc1c(F)cc(-c2ccc(=O)n(C)n2)cc1F [Example 84, 6-{3,5-Difluoro-4-[3-((R)-2-methyl-pyrrolidin-1-yl)-propoxy]-phenyl}-2-methyl-2H-pyridazin-3-one] | 175 to 178 °C | 0.1 to 100 | 0.1 to 100 | – | – | –
O=C1CCC(c2ccc(OC3CCN(C4CCC4)CC3)c(F)c2)=NN1 [Example 151, 6-[4-(1-Cyclobutyl-piperidin-4-yloxy)-3-fluoro-phenyl]-4,5-dihydro-2H-pyridazin-3-one] | 195 to 197 °C | 0.1 to 100 | 0.1 to 100 | – | – | –
N#Cc1cc(-c2ccc(=O)[nH]n2)ccc1OCCCN1CCCCC1 [Example 130, 2-[3-(piperidin-1-yl)-propoxy]-5-(6-oxo-1,6-dihydro-pyridazin-3-yl)-benzonitrile] | 207 to 209 °C | 101 to 500 | 101 to 500 | – | – | –
O=c1ccc(-c2ccc(OC3CCN(C4CCC4)CC3)cc2F)n[nH]1 [Example 221, 6-[4-(1-Cyclobutyl-piperidin-4-yloxy)-2-fluoro-phenyl]-2H-pyridazin-3-one] | > 300 °C | 0.1 to 100 | 0.1 to 100 | – | – | –
COc1cc(-c2ccc(=O)[nH]n2)ccc1OCCCN1CCCCC1 [Example 135, 6-[3-Methoxy-4-(3-piperidin-1-yl-propoxy)-phenyl]-2H-pyridazin-3-one] | 175 °C (dec.) | 101 to 500 | 101 to 500 | – | – | –
C[C@H](COc1ccc(-c2ccc(=O)[nH]n2)cc1)CN1CCC[C@H]1C [Example 132] | 163 to 167 °C | 0.1 to 100 | 0.1 to 100 | – | – | –
O=c1[nH]nc(-c2ccc(OC3CCN(C4CCC4)CC3)cc2)c2c1CCC2 [Example 176, 4-[4-(1-Cyclobutyl-piperidin-4-yloxy)-phenyl]-2,5,6,7-tetrahydro-cyclopenta[d]pyridazin-1-one] | 210 to 213 °C | 0.1 to 100 | 0.1 to 100 | – | – | –
CCC1CC(=O)NN=C1c1ccc(OC2CCN(C3CCC3)CC2)cc1 (stereo not drawn) [Example 192] | 152 to 154 °C | 0.1 to 100 | – | 4 | – | –
C[C@@H]1CCCN1CCCOc1ccc(-n2ncc3ccccc3c2=O)cc1 [Example 202, 2-{4-[3-((R)-2-Methyl-pyrrolidin-1-yl)-propoxy]-phenyl}-2H-phthalazin-1-one] | 70 to 73 °C | 0.1 to 100 | 0.1 to 100 | – | – | –
CN(CCCOc1ccc(-c2ccc(=O)[nH]n2)cc1)C1CCC1 [Example 241, 6-{4-[3-(Cyclobutyl-methyl-amino)-propoxy]-phenyl}-2H-pyridazin-3-one] | < 50 °C | 101 to 500 | 101 to 500 | – | – | –
O=C1CCC(c2ccc(O[C@@H]3CCN(C4CCCCC4)C3)cc2)=NN1 [Example 159, 6-[4-((R)-1-Cyclohexyl-pyrrolidin-3-yloxy)-phenyl]-4,5-dihydro-2H-pyridazin-3-one] | 184 to 186 °C | > 1000 | > 1000 | – | – | –
O=c1ccc(-c2ccc(OCCCN3CCCC3)cc2)n[nH]1 [Example 240, 6-[4-(3-Pyrrolidin-1-yl-propoxy)-phenyl]-2H-pyridazin-3-one] | 154 to 157 °C | 0.1 to 100 | 0.1 to 100 | – | – | –
C[C@@H]1CCCN1CCCOc1c(Br)cc(-c2cn[nH]c(=O)c2)cc1Br [Example 229] | 175 to 180 °C | 501 to 1000 | 0.1 to 100 | – | – | –
Cc1cc(=O)[nH]nc1-c1ccc(OC2CCN(C3CCC3)CC2)cc1 [Example 222, 6-[4-(1-Cyclobutyl-piperidin-4-yloxy)-phenyl]-5-methyl-2H-pyridazin-3-one] | > 300 °C | 0.1 to 100 | 0.1 to 100 | – | – | –
C[C@@H](COc1ccc(-c2cn[nH]c(=O)c2)cc1)CN1CCCCC1 [Example 228, 5-[4-((R)-2-Methyl-3-piperidin-1-yl-propoxy)-phenyl]-2H-pyridazin-3-one] | 160 to 163 °C | 101 to 500 | 0.1 to 100 | – | – | –
C[C@@H]1CCCN1CCCOc1ccc(-n2nc(-c3cccnc3)ccc2=O)cc1 [Example 204, 2-{4-[3-((R)-2-Methyl-pyrrolidin-1-yl)-propoxy]-phenyl}-6-pyridin-3-yl-2H-pyridazin-3-one] | 87 to 90 °C | 0.1 to 100 | 0.1 to 100 | – | – | –
O=C1CC(c2ccccn2)C(c2ccc(OC3CCN(C4CCC4)CC3)cc2)=NN1 (stereo not drawn) [Example 114, 6-[4-(1-Cyclobutyl-piperidin-4-yloxy)-phenyl]-5-pyridin-2-yl-4,5-dihydro-2H-pyridazin-3-one] | 199 °C (dec.) | 0.1 to 100 | 0.1 to 100 | – | – | –
Cc1n[nH]c(=O)cc1-c1ccc(OC2CCNCC2)cc1.Cl [Example 102, 6-methyl-5-[4-(piperidin-4-yloxy)-phenyl]-2H-pyridazin-3-one] | 225 to 227 °C | > 1000 | > 1000 | – | – | –
Cn1nc(-c2ccc(OCC3CCN(C(=O)OC(C)(C)C)CC3)cc2)ccc1=O [Example 65, 4-[4-(1-Methyl-6-oxo-1,6-dihydro-pyridazin-3-yl)-phenoxymethyl]-piperidine-1-carboxylic acid tert-butyl ester] | 164 to 166 °C | – | – | – | > 1000 | > 1000
CC(C)n1nc(-c2ccc(OC3CCN(C4CCC4)CC3)nc2)ccc1=O [Example 145, 6-[6-(1-Cyclobutyl-piperidin-4-yloxy)-pyridin-3-yl]-2-isopropyl-2H-pyridazin-3-one] | 113 to 115 °C | 0.1 to 100 | 0.1 to 100 | – | – | –
CC(C)N1CCC(COc2ccc(-c3ccc(=O)[nH]n3)cn2)CC1 [Example 140, 6-[6-(1-Isopropyl-piperidin-4-ylmethoxy)-pyridin-3-yl]-2H-pyridazin-3-one] | 188 to 191 °C | 501 to 1000 | 101 to 500 | – | – | –

Continued, values first:

melting point | Ki ([1]; Table B, read-out: rat H3 Ki) [nM] | Ki (human H3 receptor; [2]) [nM] | Ki (human H3 receptor; Table B, cell prints a number instead of a letter) [nM] | Ki ([1]; Table A, read-out: Rat H3 Ki) [nM] | Ki (human H3 receptor; Table A, binding constant as letter class) [nM] | SMILES
218 to 219 °C | 0.1 to 100 | 0.1 to 100 | – | – | – | C[C@@H]1CCCN1CCCOc1ccc(C2=NNC(=O)C3CCCC23)cc1 (stereo partly drawn) [Example 175, 4-{4-[3-((R)-2-Methyl-pyrrolidin-1-yl)-propoxy]-phenyl}-2,4a,5,6,7,7a-hexahydro-cyclopenta[d]pyridazin-1-one]
253 to 255 °C | 0.1 to 100 | 0.1 to 100 | – | – | – | Cc1cc(=O)[nH]nc1-c1ccc(OCCCN2CCC[C@H]2C)cc1 [Example 210, 5-Methyl-6-{4-[3-((R)-2-methyl-pyrrolidin-1-yl)-propoxy]-phenyl}-2H-pyridazin-3-one]
121 to 123 °C | 0.1 to 100 | 0.1 to 100 | – | – | – | C[C@@H]1CCCN1CCCOc1ccc(-c2ccc(=O)n(CC(F)(F)F)n2)cc1 [Example 170, 6-{4-[3-((R)-2-Methyl-pyrrolidin-1-yl)-propoxy]-phenyl}-2-(2,2,2-trifluoro-ethyl)-2H-pyridazin-3-one]
76 to 78 °C | 0.1 to 100 | 0.1 to 100 | – | – | – | C[C@@H]1CCCN1CCCOc1ccc(C2=NN(CC(F)(F)F)C(=O)CC2)cc1 [Example 168, 6-{4-[3-((R)-2-Methyl-pyrrolidin-1-yl)-propoxy]-phenyl}-2-(2,2,2-trifluoro-ethyl)-4,5-dihydro-2H-pyridazin-3-one]
120 to 123 °C | 0.1 to 100 | 0.1 to 100 | – | – | – | O=C1CCC(c2ccc(OC3CCN(C4CCC4)CC3)cc2)=NN1C1CCC1 [Example 163, 2-Cyclobutyl-6-[4-(1-cyclobutyl-piperidin-4-yloxy)-phenyl]-4,5-dihydro-2H-pyridazin-3-one]
225 to 227 °C | 0.1 to 100 | 0.1 to 100 | – | – | – | O=C1CCC(c2ccc(OC3CCN(C4CCCC4)CC3)cc2)=NN1CC(F)(F)F [Example 167, 6-[4-(1-Cyclopentyl-piperidin-4-yloxy)-phenyl]-2-(2,2,2-trifluoro-ethyl)-4,5-dihydro-2H-pyridazin-3-one]
178 to 179 °C | 0.1 to 100 | 0.1 to 100 | – | – | – | CC1=NNC(=O)CC1c1ccc(OC2CCN(C3CCC3)CC2)cc1 (stereo not drawn) [Example 110, 5-[4-(1-Cyclobutyl-piperidin-4-yloxy)-phenyl]-6-methyl-4,5-dihydro-2H-pyridazin-3-one]
157 to 158 °C | 0.1 to 100 | 0.1 to 100 | – | – | – | CC1(C)CC(c2ccc(OC3CCN(C4CCC4)CC3)cc2)=NNC1=O [Example 152, 6-[4-(1-Cyclobutyl-piperidin-4-yloxy)-phenyl]-4,4-dimethyl-4,5-dihydro-2H-pyridazin-3-one]
200 to 202 °C | 101 to 500 | 101 to 500 | – | – | – | O=c1ccc(-c2ccc(O[C@@H]3CCN(C4CCCCC4)C3)cc2)n[nH]1 [Example 160, 6-[4-((R)-1-Cyclohexyl-pyrrolidin-3-yloxy)-phenyl]-2H-pyridazin-3-one]
> 300 °C | 0.1 to 100 | 0.1 to 100 | – | – | – | O=C1CC2CCc3cc(OC4CCN(C5CCC5)CC4)ccc3C2=NN1 (stereo not drawn) [Example 220, 8-(1-Cyclobutyl-piperidin-4-yloxy)-4,4a,5,6-tetrahydro-2H-benzo[h]cinnolin-3-one]
